From ChEMBL document CHEMBL1135369, “Solid-phase synthesis of new saphenamycin analogues with antimicrobial activity” (2002)
Values after ≈ are worked out from the molar mass of the structure shown. Active and inactive are the calls of the source. The calls are words filed in the database; no cut-off is given here.

Columns and labels:
Bacillus subtilis [1] = test: Effect on Bacillus subtilis in plate diffusion test; No growth inhibition; format: functional, organism-based
Bacillus subtilis [2] = test: Effect on Bacillus subtilis in plate diffusion test; ++ indicates Srong well defined clearance zone; format: functional, organism-based
Bacillus subtilis [3] = test: Minimum inhibitory concentration against Bacillus subtilis; format: functional
Bacillus subtilis [4] = test: Effect on Bacillus subtilis in plate diffusion test; + indicates clearance zones; format: functional, organism-based

Row | Structure (SMILES) | MIC (Bacillus subtilis [3]) | Activity (Bacillus subtilis [1]) | Activity (Bacillus subtilis [2]) | Activity (Bacillus subtilis [4])
1 | Cc1ccc(C(=O)OC(C)c2cccc3nc4c(C(=O)O)cccc4nc23)c(OCc2ccccc2)c1 (configuration not stated) | – | No growth inhibition | – | –
2 | CC(OC(=O)c1ccccc1F)c1cccc2nc3c(C(=O)O)cccc3nc12 (configuration not stated) | – | No growth inhibition | – | –
3 | CC(OC(=O)c1c(F)cccc1F)c1cccc2nc3c(C(=O)O)cccc3nc12 (configuration not stated) | – | No growth inhibition | – | –
4 | CC(OC(=O)c1cccc(F)c1)c1cccc2nc3c(C(=O)O)cccc3nc12 (configuration not stated) | – | No growth inhibition | – | –
5 | CC(OC(=O)c1ccccc1[N+](=O)[O-])c1cccc2nc3c(C(=O)O)cccc3nc12 (configuration not stated) | 2.49 µg/mL (≈ 5.97 µM) | – | – | clearance zones
6 | Cc1ccc(OCc2ccccc2)c(C(=O)OC(C)c2cccc3nc4c(C(=O)O)cccc4nc23)c1 (configuration not stated) | – | No growth inhibition | – | –
7 | C[S+](C)[O-] | – | inactive | – | –

The next lines start with results.

Row | MIC (Bacillus subtilis [3]) | Structure (SMILES) | Activity (Bacillus subtilis [1]) | Activity (Bacillus subtilis [2]) | Activity (Bacillus subtilis [4])
8 | 0.72 µg/mL (≈ 1.1 µM) | CC(OC(=O)c1cccc(Cl)c1)c1cccc2nc3c(C(=O)OC(C)c4cccc5nc6c(C(=O)O)cccc6nc45)cccc3nc12 (configuration not stated) | – | Srong well defined clearance zone | –
9 | 3.73 µg/mL (≈ 7.57 µM) | Cc1cccc(C(=O)OC(C)c2cccc3nc4c(C(=O)O)cccc4nc23)c1OCc1ccccc1 (configuration not stated) | – | – | clearance zones
10 | 3.35 µg/mL (≈ 8.23 µM) | CC(OC(=O)c1ccccc1Cl)c1cccc2nc3c(C(=O)O)cccc3nc12 (configuration not stated) | – | – | clearance zones
11 | 2.71 µg/mL (≈ 6.14 µM) | CC(OC(=O)c1c(Cl)cccc1Cl)c1cccc2nc3c(C(=O)O)cccc3nc12 (configuration not stated) | – | – | clearance zones
12 | 0.07 µg/mL (≈ 0.172 µM) | CC(OC(=O)c1cccc(Cl)c1)c1cccc2nc3c(C(=O)O)cccc3nc12 (configuration not stated) | – | Srong well defined clearance zone | –
13 | 3.93 µg/mL (≈ 10.1 µM) | CC(OC(=O)c1ccc(F)cc1)c1cccc2nc3c(C(=O)O)cccc3nc12 (configuration not stated) | – | – | clearance zones
14 | 2.1 µg/mL (≈ 4.41 µM) | CC(OC(=O)c1c(Cl)cc(Cl)cc1Cl)c1cccc2nc3c(C(=O)O)cccc3nc12 (configuration not stated) | – | Srong well defined clearance zone | –
